Measured values published in PubChem BioAssay (NCI).
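How tested: cells in 96-well plates exposed to compound for 48 hours at five concentrations. The concentration for 50% growth inhibition is given as GI50. TGI is the concentration that stops growth completely.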

How the values were obtained:
Experiment in all cases: NCI-60 cell line screen, 48 h
NCI/ADR-RES ovarian = tested on: NCI/ADR-RES ovarian
M14 melanoma = tested on: M14 melanoma
BT-549 breast = tested on: BT-549 breast
LOX IMVI melanoma = tested on: LOX IMVI melanoma
NCI-H522 lung = tested on: NCI-H522 lung
SF-295 CNS = tested on: SF-295 CNS
HCC-2998 colon = tested on: HCC-2998 colon
CAKI-1 renal = tested on: CAKI-1 renal
SK-MEL-2 melanoma = tested on: SK-MEL-2 melanoma
IGROV1 ovarian = tested on: IGROV1 ovarian
NCI-H23 lung = tested on: NCI-H23 lung
HCT-15 colon = tested on: HCT-15 colon
786-0 renal = tested on: 786-0 renal
DU-145 prostate = tested on: DU-145 prostate
KM12 colon = tested on: KM12 colon
TK-10 renal = tested on: TK-10 renal
HOP-62 NSCLC = tested on: HOP-62 NSCLC
K-562 leukemia = tested on: K-562 leukemia
MCF7 breast = tested on: MCF7 breast
UACC-62 melanoma = tested on: UACC-62 melanoma
EKVX NSCLC = tested on: EKVX NSCLC
HS 578T breast = tested on: HS 578T breast
OVCAR-5 ovarian = tested on: OVCAR-5 ovarian
HT29 colon = tested on: HT29 colon
UACC-257 melanoma = tested on: UACC-257 melanoma
OVCAR-8 ovarian = tested on: OVCAR-8 ovarian
HL-60(TB) leukemia = tested on: HL-60(TB) leukemia
UO-31 renal = tested on: UO-31 renal
A498 renal = tested on: A498 renal
ACHN renal = tested on: ACHN renal
NCI-H226 lung = tested on: NCI-H226 lung
SK-MEL-5 melanoma = tested on: SK-MEL-5 melanoma
MALME-3M melanoma = tested on: MALME-3M melanoma
SN12C renal = tested on: SN12C renal
SNB-75 CNS = tested on: SNB-75 CNS
SR leukemia = tested on: SR leukemia
COLO 205 colon = tested on: COLO 205 colon
U251 CNS = tested on: U251 CNS
MOLT-4 leukemia = tested on: MOLT-4 leukemia
A549 NSCLC = tested on: A549 NSCLC
PC-3 prostate = tested on: PC-3 prostate
CCRF-CEM leukemia = tested on: CCRF-CEM leukemia
OVCAR-3 ovarian = tested on: OVCAR-3 ovarian
RXF 393 renal = tested on: RXF 393 renal
MDA-MB-435 = tested on: MDA-MB-435
SF-268 CNS = tested on: SF-268 CNS
SF-539 CNS = tested on: SF-539 CNS
HOP-92 NSCLC = tested on: HOP-92 NSCLC
MDA-MB-231 breast = tested on: MDA-MB-231 breast
OVCAR-4 ovarian = tested on: OVCAR-4 ovarian
SW-620 colon = tested on: SW-620 colon
T-47D breast = tested on: T-47D breast
NCI-H460 lung = tested on: NCI-H460 lung
SK-MEL-28 melanoma = tested on: SK-MEL-28 melanoma
RPMI-8226 leukemia = tested on: RPMI-8226 leukemia
SNB-19 CNS = tested on: SNB-19 CNS
HCT-116 colon = tested on: HCT-116 colon
SK-OV-3 ovarian = tested on: SK-OV-3 ovarian

## CCN(CC)CCn1c(=O)c2cc(OC)c(OC)cc2c2ccc3cc4c(cc3c21)OCO4
NCI/ADR-RES ovarian
  GI50: 0.42 µM
  TGI: 43.9 µM
M14 melanoma
  GI50: 0.278 µM
  TGI: 12.7 µM
BT-549 breast
  GI50: 0.456 µM
  TGI: 17.2 µM
LOX IMVI melanoma
  GI50: 0.139 µM
  TGI: 0.584 µM
NCI-H522 lung
  GI50: 0.151 µM
  TGI: 21 µM
SF-295 CNS
  GI50: 0.0907 µM
  TGI: 2.54 µM
HCC-2998 colon
  GI50: 2.57 µM
  TGI: 25.7 µM
CAKI-1 renal
  GI50: 0.222 µM
  TGI: 15.1 µM
SK-MEL-2 melanoma
  GI50: > 100 µM
  TGI: > 100 µM
IGROV1 ovarian
  GI50: 0.491 µM
  TGI: 21.4 µM
NCI-H23 lung
  GI50: 0.348 µM
  TGI: 11.6 µM
HCT-15 colon
  GI50: 1.61 µM
  TGI: 10.3 µM
786-0 renal
  GI50: 0.479 µM
  TGI: 13.4 µM
DU-145 prostate
  GI50: 0.321 µM
  TGI: 6.93 µM
KM12 colon
  GI50: 0.734 µM
  TGI: 23.9 µM
TK-10 renal
  GI50: 13.4 µM
  TGI: 30.3 µM
HOP-62 NSCLC
  GI50: 0.246 µM
  TGI: 13.8 µM
K-562 leukemia
  GI50: 0.536 µM
MCF7 breast
  GI50: 0.0607 µM
  TGI: 24.8 µM
UACC-62 melanoma
  GI50: 0.163 µM
  TGI: 14.8 µM
EKVX NSCLC
  GI50: 12.2 µM
  TGI: 29.4 µM
HS 578T breast
  GI50: 12.4 µM
  TGI: 45.4 µM
OVCAR-5 ovarian
  GI50: 8.21 µM
  TGI: 36.1 µM
HT29 colon
  GI50: 0.195 µM
  TGI: 6.16 µM
UACC-257 melanoma
  GI50: 0.472 µM
  TGI: 22.2 µM
OVCAR-8 ovarian
  GI50: 0.922 µM
  TGI: 48.9 µM
HL-60(TB) leukemia
  GI50: 0.721 µM
  TGI: 3.16 µM
UO-31 renal
  GI50: 0.405 µM
  TGI: 17.3 µM
A498 renal
  GI50: 0.15 µM
  TGI: 0.655 µM
ACHN renal
  GI50: 0.266 µM
  TGI: 12 µM
NCI-H226 lung
  GI50: 0.446 µM
  TGI: > 50.6 µM
SK-MEL-5 melanoma
  GI50: 0.193 µM
  TGI: 0.457 µM
MALME-3M melanoma
  GI50: 0.354 µM
  TGI: 14.5 µM
SN12C renal
  GI50: 0.455 µM
  TGI: 20.2 µM
SNB-75 CNS
  GI50: 0.305 µM
  TGI: 15.4 µM
SR leukemia
  GI50: 0.0415 µM
  TGI: 2.51 µM
COLO 205 colon
  GI50: 0.192 µM
  TGI: 16.4 µM
U251 CNS
  GI50: 0.201 µM
  TGI: 18.6 µM
MOLT-4 leukemia
  GI50: 0.0715 µM
  TGI: 3.72 µM
A549 NSCLC
  GI50: 0.725 µM
  TGI: 8.53 µM
PC-3 prostate
  GI50: 0.799 µM
  TGI: 99.7 µM
CCRF-CEM leukemia
  GI50: 0.0824 µM
  TGI: > 33.6 µM
OVCAR-3 ovarian
  GI50: 7.57 µM
  TGI: 25.5 µM
RXF 393 renal
  GI50: 0.448 µM
  TGI: 17.2 µM
MDA-MB-435
  GI50: 0.795 µM
  TGI: 20.9 µM
SF-268 CNS
  GI50: 0.228 µM
  TGI: 37.8 µM
SF-539 CNS
  GI50: 0.253 µM
  TGI: 0.818 µM
HOP-92 NSCLC
  GI50: 0.49 µM
  TGI: > 50 µM
MDA-MB-231 breast
  GI50: 1.29 µM
  TGI: 3.66 µM
OVCAR-4 ovarian
  GI50: 0.477 µM
  TGI: 19.9 µM
SW-620 colon
  GI50: 0.692 µM
  TGI: 23.2 µM
T-47D breast
  GI50: 0.26 µM
  TGI: 26.4 µM
NCI-H460 lung
  GI50: 0.0766 µM
  TGI: 1.41 µM
SK-MEL-28 melanoma
  GI50: 12 µM
  TGI: 24.8 µM
RPMI-8226 leukemia
  GI50: 0.436 µM
  TGI: 4.56 µM
SNB-19 CNS
  GI50: 0.367 µM
  TGI: 27.2 µM
HCT-116 colon
  GI50: 0.377 µM
  TGI: 6.2 µM

## COc1ccc2nc3c(cc2c1)C(=O)CC(c1ccccc1)C3 (stereo not drawn)
NCI/ADR-RES ovarian
  GI50: 0.359 µM
  TGI: > 100 µM
BT-549 breast
  GI50: 1.36 µM
  TGI: > 100 µM
LOX IMVI melanoma
  GI50: 1.33 µM
  TGI: > 100 µM
NCI-H522 lung
  GI50: 0.401 µM
  TGI: > 67.4 µM
SF-295 CNS
  GI50: 0.905 µM
  TGI: 11 µM
HCC-2998 colon
  GI50: 15.9 µM
  TGI: > 100 µM
CAKI-1 renal
  GI50: 0.552 µM
  TGI: > 100 µM
SK-MEL-2 melanoma
  GI50: 0.771 µM
  TGI: > 100 µM
IGROV1 ovarian
  GI50: 2.32 µM
  TGI: > 100 µM
NCI-H23 lung
  GI50: 5.4 µM
  TGI: > 100 µM
HCT-15 colon
  GI50: 2.19 µM
  TGI: > 100 µM
786-0 renal
  GI50: 2.23 µM
  TGI: > 100 µM
DU-145 prostate
  GI50: 0.595 µM
  TGI: > 58.1 µM
KM12 colon
  GI50: 0.469 µM
  TGI: > 100 µM
TK-10 renal
  GI50: > 100 µM
  TGI: > 100 µM
HOP-62 NSCLC
  GI50: 2.75 µM
  TGI: > 100 µM
K-562 leukemia
  GI50: 0.359 µM
  TGI: > 100 µM
MCF7 breast
  GI50: 3.54 µM
  TGI: > 100 µM
UACC-62 melanoma
  GI50: 0.601 µM
  TGI: > 100 µM
EKVX NSCLC
  GI50: 5.81 µM
  TGI: > 100 µM
HS 578T breast
  GI50: 0.882 µM
  TGI: > 100 µM
OVCAR-5 ovarian
  GI50: 6.83 µM
  TGI: > 100 µM
HT29 colon
  GI50: 0.439 µM
  TGI: > 100 µM
UACC-257 melanoma
  GI50: > 100 µM
  TGI: > 100 µM
OVCAR-8 ovarian
  GI50: 0.934 µM
  TGI: > 100 µM
HL-60(TB) leukemia
  GI50: 0.301 µM
UO-31 renal
  GI50: 0.589 µM
  TGI: > 100 µM
A498 renal
  GI50: 0.215 µM
  TGI: 1.18 µM
ACHN renal
  GI50: 0.853 µM
  TGI: > 100 µM
NCI-H226 lung
  GI50: 2.53 µM
  TGI: > 100 µM
SK-MEL-5 melanoma
  GI50: 0.979 µM
  TGI: 44.5 µM
MALME-3M melanoma
  GI50: 0.432 µM
  TGI: > 100 µM
SN12C renal
  GI50: 0.732 µM
  TGI: > 100 µM
SNB-75 CNS
  GI50: 0.181 µM
  TGI: > 100 µM
SR leukemia
  GI50: 0.379 µM
  TGI: > 100 µM
COLO 205 colon
  GI50: 0.732 µM
  TGI: > 100 µM
U251 CNS
  GI50: 5.81 µM
  TGI: > 100 µM
MOLT-4 leukemia
  GI50: 0.364 µM
  TGI: > 100 µM
A549 NSCLC
  GI50: 2.05 µM
  TGI: > 100 µM
PC-3 prostate
  GI50: 0.901 µM
  TGI: > 100 µM
CCRF-CEM leukemia
  GI50: 0.291 µM
  TGI: > 100 µM
OVCAR-3 ovarian
  GI50: 1.4 µM
  TGI: 10.4 µM
MDA-MB-435
  GI50: 0.137 µM
  TGI: 0.38 µM
SF-268 CNS
  GI50: > 100 µM
  TGI: > 100 µM
SK-OV-3 ovarian
  GI50: 2.09 µM
  TGI: > 100 µM
SF-539 CNS
  GI50: 1.22 µM
  TGI: 5.15 µM
HOP-92 NSCLC
  TGI: > 100 µM
MDA-MB-231 breast
  GI50: 3 µM
  TGI: > 100 µM
OVCAR-4 ovarian
  GI50: > 100 µM
  TGI: > 100 µM
SW-620 colon
  GI50: 0.727 µM
  TGI: > 100 µM
T-47D breast
  GI50: 5.34 µM
  TGI: > 100 µM
NCI-H460 lung
  GI50: 1.44 µM
  TGI: > 100 µM
SK-MEL-28 melanoma
  GI50: 4.09 µM
  TGI: > 100 µM
RPMI-8226 leukemia
  GI50: 3.65 µM
  TGI: > 100 µM
SNB-19 CNS
  GI50: 2.94 µM
  TGI: > 100 µM
HCT-116 colon
  GI50: 0.383 µM
  TGI: > 100 µM
